This is an account of results in patent US20150050244A1, “Entomopathogenic Fungi and Uses Thereof” (priority 2008, published 2015).

This assay relates to green pea aphid (Myzus persicae). The assay is described as follows: Aphid mortality on leaf discs, Potters tower, K4B3 extract versus beauvericin. Format: in vivo. Here is the method: Table 7 below presents mortality observed amongst green pea aphid (Myzus persicae) present on Asian brassica leaf discs. Asian brassica leaf discs were placed on 1% water agar in Petri dishes. […] The sprayed Petri dishes were placed dorsal side down on paper towels to allow surfaces to dry. Five replicates of each treatment were done. Mortality was assessed 48 hours after application.

Setting [1] is: per replicate, 2 mL sprayed, 48 hours, beauvericin solution 50 μg/mL with 2.5 mL millennium oil/L.
Where [2] appears, read: total of replicates, 2 mL sprayed, 48 hours.

“And” between values parts separate entries of the source, which are not always exact repeats. Identical values can stand only once.

As to beauvericin, for the setting “beauvericin alone, Table 7”, the “mortality compared with the water control” value is “not significantly different”. Also, the “aphid mortality (in words)” value (beauvericin even at 50,000 μg/L) is given as “very low”. Under setting [1], the “Alive Adult” value was 0 (3×) and 8 and 10; the “Alive Juv.” value is 0 (3×) and 22 and 28; the “Dead Adult” value was 0 (4×) and 1; the “Dead Juv.” value is 0 (3×) and 1 and 3. Also, under setting [2], the “Total Alive Adult” value worked out at 18, the “Total Alive Juv.” value worked out at 50, the “Total Dead Adult” value is given as 1 and the “Total Dead Juv.” value is 4.
